“Also recorded” adds a separate entry of the source.
Experiments:
firefly luciferase = experiment: In vitro siRNA transfection assay (luciferase silencing) in HeLa cells with apolipoproteins; format: cell-based; details: for order of silencing effects: with addition of ApoE3 (ApoE), siRNA 50 ng/well
Description: HeLa cells, stably expressing firefly luciferase and Renilla luciferase, were seeded (14,000 cells/well) into each well of an opaque white 96-well plate (Corning-Costar) and allowed to attach overnight in growth medium. Growth medium was composed of 90% phenol red-free DMEM, 10% FBS, 100 units/ml penicillin, […] streptomycin (Invitrogen). Cells were transfected with LNPs formulated with anti-luciferase siRNA by addition of formulated particles to growth medium. Transfections were performed in quadruplicate. Cells were allowed to grow for 1 d at 37° C., 5% CO2 and were then analyzed for luciferase expression. Control experiments were performed with Lipofectamine 2000, as described by the vendor (Invitrogen). Firefly and Renilla luciferase expression was analyzed using Dual-Glo assay kits (Promega). Luminescence was measured using a Victor3 luminometer (Perkin Elmer). Effects of apolipoproteins were evaluated through an in vitro siRNA transfection assay in HeLa cells as previously reported. HeLa cells, stably expressing firefly luciferase and Renilla luciferase were seeded in an opaque white 96-well plate (Corning-Costar) overnight. Cells were transfected by cKK-E12 formulated with 50 ng of firefly-specific siLuc in quadruplicate. Apolipoproteins (Fitzgerald Industries) were incubated with cKK-E12 formulations for 5 mins before adding to cells. After 24 h incubation at 37° C., 5% CO2, cells were analyzed for luciferase expression using Dual-Glo assay kits (Promega). For visualization of cell uptake, cKK-E12 was formulated with an Alexa-Fluor siRNA and incubated with Hela cells for 3 h. Cells were then fixed in 4% paraformaldehyde, permeabilized with 0.1% saponin and stained with Hoescht. All images were acquired using an Opera spinning disc confocal system (Perkin Elmer), and the data was analyzed using Acapella Software (Perkin Elmer).

Factor VII = experiment: In vivo Factor VII gene silencing in mice; design: species or system C57BL/6 mice
Description: APPL, distearoyl phosphatidylcholine (DSPC), cholesterol and mPEG2000-DMG were solubilized in 90% ethanol at a molar ratio of 50:10:38.5:1.5. The siRNA (against firefly luciferase or fVII) was solubilized in 10 mM citrate, pH 3 buffer at a concentration of 0.4 mg/mL. The ethanolic lipid solution and the aqueous siRNA solution were pumped by means of a syringe pump through a microfluidic mixing chamber to spontaneously form siRNA-containing lipid nanoparticles. Lipids were combined with siRNA at a total lipid to siRNA ratio of 7:1 (wt:wt). These formulations were dialyzed against PBS to remove ethanol and exchange buffer. […]
C57BL/6 mice (Charles River Labs) were used for siRNA silencing experiments. […] After 48 or 72 h, body-weight gain/loss was measured and mice were anaesthetized by isofluorane inhalation for blood sample collection by retroorbital eye bleed. Serum was isolated with serum separation tubes (Falcon tubes, Becton Dickinson) and Factor VII protein levels were analyzed by chromogenic assay (Biophen FVII, Aniara Corporation). A standard curve was constructed using samples from PBS-injected mice and relative Factor VII expression was determined by comparing treated groups to untreated PBS control. […]

SMILES	order of silencing effects (firefly luciferase)	Factor VII silencing, relative potency (Factor VII; lower dose of 0.1 mg/kg, 0.1 mg/kg)	Factor VII silencing, relative potency (Factor VII; siRNA formulation, systemic administration, dose of 1 mg/kg)	luciferase silencing, relative potency (firefly luciferase; without addition of ApoE3, siRNA 50 ng/well)
CCCCCCCCCCC(O)CN(CCCCC1NC(=O)C(CCCCN(CC(O)CCCCCCCCCC)CC(O)CCCCCCCCCC)NC1=O)CC(O)CCCCCCCCCC (centres unmarked) [cKK-E12]	cKK-E12>cKK-A12>cKK-O12	lead compound; also recorded: most potent material	more potent than aldehyde and acrylate derivatives	
CCCCCCCCCCCCN(CCCCCCCCCCCC)CCCCC1NC(=O)C(CCCCN(CCCCCCCCCCCC)CCCCCCCCCCCC)NC1=O (centres unmarked) [cKK-A12]	cKK-E12>cKK-A12>cKK-O12			more potent than cKK-E12 and cKK-O12
